Measurements reported in patent US20150283095A1, “NANOPARTICLES WITH BIODEGRADABLE AND BIOCOMPATIBLE POLYMER PLGA, LOADED WITH THE DRUG FOR HUMAN USE PENTOXIFYLLINE” (UNIVERSIDAD DE SANTIAGO DE CHILE, priority 2012, published 2015).

Key:
[1] = system: primary cultures of activated microglia; conditions: LPS-activated microglia treated with propentofylline; cited from earlier work
monoarthritis = experiment: Monoarthritis chronic pain model (complete Freund's adjuvant), paw pressure test; type: in vivo, Sprague-Dawley rats; conditions: PTX administered for 10 days, effect up to 21 days
Experimental: Sprague-Dawley rats weighing approximately 100 g were used. This model was described by Butler (Butler et al, 1992). He was inoculated into the right paw (tibio-tarsal fourth) of rats with 50 uL of complete Freund's adjuvant containing 300 ug Mycobacterium butiricum. This injection produces a localized arthritis syndrome and found to be stable between four and six post-inoculation, weeks During this period there is an establishment of neurogenic pain and hyperalgesia, and this pain is held for more than two months period. Control rats were injected with the vehicle only Mycobacterium butiricum.
All doses of nanoparticles or free drugs were administered by intrathecal (it) in a maximum volume of […], dissolved in artificial cerebrospinal fluid (LCA: 1.3 mm CaCl2, KCl 2.8 mm, 0.9 mm MgCl2, NaHCO3 20 mM, 2.5 mM Na 2 HPO 7H2O, 125 mM NaCl). The injection i.t. it involves administration of the drug into the subarachnoid space between lumbar vertebrae L5 and L6 (Mestre et al, 1994) using a Hamilton syringe with a needle 26Gx1/2”. The entrance to the subarachnoid space evidenced by a slight movement in the tail of the rat, due to the mechanical stimulation of the needle to penetrate the spinal cord meninges. […]

Compound | production of tumor necrosis factor (TNF), IL-1β and radicals oxygen [1] | effect on threshold of pain, pressure test of the leg (monoarthritis)
CCCn1cnc2c1c(=O)n(CCCCC(C)=O)c(=O)n2C [propentofylline, 3-methyl-1-(5-oxo-hexyl)-7-propylxanthine] | inhibition | 
CC(=O)CCCCn1c(=O)c2c(ncn2C)n(C)c1=O [PTX, 3,7-dimethyl-1-(5-oxo-hexyl)xanthine] |  | lowers the threshold of pain
